{
  "source": "ChEMBL document CHEMBL4665648",
  "about": "“Potent and selective inhibitors of receptor-interacting protein kinase 1 that lack an aromatic back pocket group” (Bioorg Med Chem Lett, 2019)",
  "key": {"[1]": {"molecular_target": "Serine/threonine-protein kinase PLK2 (Homo sapiens) (UniProt Q9NYY3)", "assay": "Inhibition of recombinant human GST-tagged full length PLK2 expressed in baculovirus expression system using Ser/Thr 16 as substrate at 10 uM incubated for 60 mins by Z'-lyte assay relative to control"}, "[2]": {"molecular_target": "Insulin receptor (Homo sapiens) (UniProt P06213)", "assay": "Inhibition of recombinant human GST-tagged InsR (1011 to 1382 residues) expressed in baculovirus expression system using Tyr 01 as substrate at 10 uM incubated for 60 mins by Z'-lyte assay relative to control"}, "[3]": {"molecular_target": "Myosin light chain kinase (Homo sapiens) (UniProt Q32MK0)", "assay": "Inhibition of MYLK3 (unknown origin) by selectscreen kinase assay", "settings": "dose 10.0 µM, time 60.0 min"}, "[4]": {"molecular_target": "Wee1-like protein kinase (Homo sapiens) (UniProt P30291)", "sequence (P30291 whole entry, looked up)": "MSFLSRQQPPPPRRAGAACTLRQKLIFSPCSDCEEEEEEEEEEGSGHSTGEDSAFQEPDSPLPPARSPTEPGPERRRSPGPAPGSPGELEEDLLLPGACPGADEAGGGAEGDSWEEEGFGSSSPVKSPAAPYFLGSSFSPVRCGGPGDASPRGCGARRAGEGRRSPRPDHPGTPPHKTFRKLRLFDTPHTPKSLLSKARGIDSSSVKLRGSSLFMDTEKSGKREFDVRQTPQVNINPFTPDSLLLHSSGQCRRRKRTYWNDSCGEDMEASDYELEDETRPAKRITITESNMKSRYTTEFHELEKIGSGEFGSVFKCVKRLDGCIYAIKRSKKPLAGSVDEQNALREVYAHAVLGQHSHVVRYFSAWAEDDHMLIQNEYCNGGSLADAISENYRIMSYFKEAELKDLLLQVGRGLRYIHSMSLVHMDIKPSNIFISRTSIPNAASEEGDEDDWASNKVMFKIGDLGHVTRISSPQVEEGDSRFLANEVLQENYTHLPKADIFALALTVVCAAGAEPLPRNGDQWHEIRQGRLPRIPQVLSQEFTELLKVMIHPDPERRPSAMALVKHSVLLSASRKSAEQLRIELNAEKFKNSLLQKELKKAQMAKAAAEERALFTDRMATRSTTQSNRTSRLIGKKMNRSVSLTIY", "assay": "Inhibition of tracer 178 binding to recombinant human N-terminal GST-tagged full length WEE1 expressed in baculovirus expression system at 10 uM incubated for 60 mins by Lanthascreen assay relative to control"}, "[5]": {"molecular_target": "Proto-oncogene tyrosine-protein kinase ROS (Homo sapiens) (UniProt P08922)", "sequence (P08922 whole entry, the tested form may be a part)": "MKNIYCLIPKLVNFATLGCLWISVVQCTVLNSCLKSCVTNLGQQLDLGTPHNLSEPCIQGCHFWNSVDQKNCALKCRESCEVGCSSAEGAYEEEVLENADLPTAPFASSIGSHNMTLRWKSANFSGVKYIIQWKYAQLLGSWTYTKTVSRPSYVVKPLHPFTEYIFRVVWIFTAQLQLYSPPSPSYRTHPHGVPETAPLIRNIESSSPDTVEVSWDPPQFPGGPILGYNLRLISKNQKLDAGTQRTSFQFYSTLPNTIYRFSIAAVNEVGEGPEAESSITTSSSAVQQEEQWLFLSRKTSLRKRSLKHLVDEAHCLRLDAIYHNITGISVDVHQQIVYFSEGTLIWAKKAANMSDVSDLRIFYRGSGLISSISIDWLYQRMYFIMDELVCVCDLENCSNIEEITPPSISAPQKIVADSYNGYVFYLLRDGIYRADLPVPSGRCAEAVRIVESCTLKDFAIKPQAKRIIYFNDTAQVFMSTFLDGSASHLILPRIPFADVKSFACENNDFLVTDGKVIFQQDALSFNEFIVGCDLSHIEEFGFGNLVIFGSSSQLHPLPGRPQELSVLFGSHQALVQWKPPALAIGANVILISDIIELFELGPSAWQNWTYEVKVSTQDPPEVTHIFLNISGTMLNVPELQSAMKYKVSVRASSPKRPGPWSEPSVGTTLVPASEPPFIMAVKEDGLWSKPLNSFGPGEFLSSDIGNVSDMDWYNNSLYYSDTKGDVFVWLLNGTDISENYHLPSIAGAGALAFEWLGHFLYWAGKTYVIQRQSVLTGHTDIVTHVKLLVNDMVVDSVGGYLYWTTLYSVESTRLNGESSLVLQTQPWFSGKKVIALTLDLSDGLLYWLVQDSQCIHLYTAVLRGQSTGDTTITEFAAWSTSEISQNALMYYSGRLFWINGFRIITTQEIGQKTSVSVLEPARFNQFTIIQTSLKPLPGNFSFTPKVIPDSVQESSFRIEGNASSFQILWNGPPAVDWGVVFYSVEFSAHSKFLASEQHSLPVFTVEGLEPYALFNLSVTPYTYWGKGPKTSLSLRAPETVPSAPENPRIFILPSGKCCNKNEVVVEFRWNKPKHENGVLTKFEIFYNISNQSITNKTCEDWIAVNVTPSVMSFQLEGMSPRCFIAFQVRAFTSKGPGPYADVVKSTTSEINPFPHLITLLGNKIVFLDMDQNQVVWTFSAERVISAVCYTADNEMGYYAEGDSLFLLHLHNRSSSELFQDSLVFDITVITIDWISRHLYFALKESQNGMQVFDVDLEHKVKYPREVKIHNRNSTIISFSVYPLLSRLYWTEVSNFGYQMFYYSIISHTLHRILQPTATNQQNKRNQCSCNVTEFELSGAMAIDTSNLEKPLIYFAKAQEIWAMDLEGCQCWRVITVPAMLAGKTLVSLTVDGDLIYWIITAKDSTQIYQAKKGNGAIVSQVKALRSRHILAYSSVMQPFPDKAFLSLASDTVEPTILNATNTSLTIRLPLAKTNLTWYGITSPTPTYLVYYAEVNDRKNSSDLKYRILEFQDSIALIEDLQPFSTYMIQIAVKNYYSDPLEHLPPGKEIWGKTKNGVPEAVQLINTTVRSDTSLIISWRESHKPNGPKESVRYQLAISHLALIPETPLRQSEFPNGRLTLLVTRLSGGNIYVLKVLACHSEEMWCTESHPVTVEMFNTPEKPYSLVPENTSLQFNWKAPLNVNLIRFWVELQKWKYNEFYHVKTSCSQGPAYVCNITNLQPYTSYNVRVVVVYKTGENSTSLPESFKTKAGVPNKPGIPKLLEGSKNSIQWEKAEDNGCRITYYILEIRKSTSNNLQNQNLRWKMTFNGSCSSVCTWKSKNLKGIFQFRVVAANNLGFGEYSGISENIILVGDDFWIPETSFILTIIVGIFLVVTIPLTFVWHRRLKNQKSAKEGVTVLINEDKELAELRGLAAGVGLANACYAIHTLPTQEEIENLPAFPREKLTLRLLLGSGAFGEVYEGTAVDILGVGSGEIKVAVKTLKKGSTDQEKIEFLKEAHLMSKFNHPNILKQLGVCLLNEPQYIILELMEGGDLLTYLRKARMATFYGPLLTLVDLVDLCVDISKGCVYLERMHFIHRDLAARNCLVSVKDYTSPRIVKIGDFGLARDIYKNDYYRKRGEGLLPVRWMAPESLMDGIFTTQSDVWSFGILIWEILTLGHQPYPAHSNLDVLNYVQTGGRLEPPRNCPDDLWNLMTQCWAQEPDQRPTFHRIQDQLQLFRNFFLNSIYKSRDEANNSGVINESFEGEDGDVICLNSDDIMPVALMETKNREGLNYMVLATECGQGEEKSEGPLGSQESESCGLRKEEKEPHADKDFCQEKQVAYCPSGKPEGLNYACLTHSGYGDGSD", "assay": "Inhibition of recombinant human GST-tagged full length ROS1 (1883 to 2347 residues) expressed in baculovirus expression system using Tyr 01 as substrate at 10 uM incubated for 60 mins by Z'-Lyte assay relative to control"}, "[6]": {"molecular_target": "Serine/threonine-protein kinase 25 (Homo sapiens) (UniProt O00506)", "assay": "Inhibition of recombinant human GST-tagged full length YSK1 expressed in baculovirus expression system using Ser/Thr 07 as substrate at 10 uM incubated for 60 mins by Z'-Lyte assay relative to control"}, "[7]": {"molecular_target": "Muscle, skeletal receptor tyrosine-protein kinase (Homo sapiens) (UniProt O15146)", "assay": "Inhibition of recombinant human GST-tagged MUSK (519 to 869 residues) expressed in baculovirus expression system using Tyr 04 as substrate at 10 uM incubated for 60 mins by Z'-lyte assay relative to control"}, "[8]": {"molecular_target": "Serine/threonine-protein kinase WNK2 (Homo sapiens) (UniProt Q9Y3S1)", "assay": "Inhibition of tracer 178 binding to recombinant human GST-tagged WNK2 (166 to 489 residues) expressed in baculovirus expression system at 10 uM incubated for 60 mins by Lanthascreen assay relative to control"}, "[9]": {"molecular_target": "Angiopoietin-1 receptor (Homo sapiens) (UniProt Q02763)", "assay": "Inhibition of recombinant human GST-tagged TIE2 (817 to 1101 residues) expressed in baculovirus expression system using Ser/Thr 05 as substrate at 10 uM incubated for 60 mins by Z'-Lyte assay relative to control"}, "[10]": {"molecular_target": "Serine/threonine-protein kinase TAO2 (Homo sapiens) (UniProt Q9UL54)", "sequence (Q9UL54 whole entry, the tested form may be a part)": "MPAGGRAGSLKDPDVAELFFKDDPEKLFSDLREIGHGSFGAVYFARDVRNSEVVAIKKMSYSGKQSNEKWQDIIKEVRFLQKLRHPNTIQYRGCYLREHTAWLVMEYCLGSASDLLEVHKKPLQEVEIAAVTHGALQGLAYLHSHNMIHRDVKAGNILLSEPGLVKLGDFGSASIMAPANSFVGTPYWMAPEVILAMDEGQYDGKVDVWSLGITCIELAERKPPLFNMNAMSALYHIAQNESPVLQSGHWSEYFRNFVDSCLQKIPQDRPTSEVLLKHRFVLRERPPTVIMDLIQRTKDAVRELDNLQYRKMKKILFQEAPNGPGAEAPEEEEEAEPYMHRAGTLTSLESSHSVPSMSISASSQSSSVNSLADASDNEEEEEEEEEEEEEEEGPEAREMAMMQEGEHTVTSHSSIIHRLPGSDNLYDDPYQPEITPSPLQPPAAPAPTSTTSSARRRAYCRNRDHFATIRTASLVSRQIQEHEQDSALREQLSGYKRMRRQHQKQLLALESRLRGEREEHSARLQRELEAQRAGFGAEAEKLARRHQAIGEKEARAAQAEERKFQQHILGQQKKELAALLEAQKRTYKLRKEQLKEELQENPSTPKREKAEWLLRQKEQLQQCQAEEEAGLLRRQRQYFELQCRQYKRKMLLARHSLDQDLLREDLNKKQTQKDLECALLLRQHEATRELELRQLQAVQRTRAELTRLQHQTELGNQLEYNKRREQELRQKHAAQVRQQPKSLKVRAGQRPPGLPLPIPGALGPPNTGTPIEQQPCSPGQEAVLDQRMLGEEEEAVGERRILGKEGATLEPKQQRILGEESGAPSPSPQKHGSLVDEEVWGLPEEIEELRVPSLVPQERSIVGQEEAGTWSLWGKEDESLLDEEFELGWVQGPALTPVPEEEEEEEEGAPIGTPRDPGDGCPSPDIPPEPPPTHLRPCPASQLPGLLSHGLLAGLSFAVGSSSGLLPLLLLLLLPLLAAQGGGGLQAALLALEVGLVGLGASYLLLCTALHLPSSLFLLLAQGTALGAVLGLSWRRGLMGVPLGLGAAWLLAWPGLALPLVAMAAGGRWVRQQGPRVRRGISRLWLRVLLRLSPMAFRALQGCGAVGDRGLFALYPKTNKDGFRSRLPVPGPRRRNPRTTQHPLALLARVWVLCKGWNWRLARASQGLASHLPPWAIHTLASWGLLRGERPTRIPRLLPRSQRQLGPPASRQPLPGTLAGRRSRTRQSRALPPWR", "assay": "Inhibition of recombinant human GST-tagged TAO2 (1 to 314 residues) expressed in baculovirus expression system using Ser/Thr 07 as substrate at 10 uM incubated for 60 mins by Z'-Lyte assay relative to control"}, "[11]": {"molecular_target": "Tyrosine-protein kinase ZAP-70 (Homo sapiens) (UniProt P43403)", "assay": "Inhibition of recombinant human His-tagged full length ZAP70 expressed in baculovirus expression system using Tyr 07 as substrate at 10 uM incubated for 60 mins by Z'-Lyte assay relative to control"}, "[12]": {"molecular_target": "Serine/threonine-protein kinase pim-1 (Homo sapiens) (UniProt P11309)", "assay": "Inhibition of recombinant human His-tagged full length PIM1 expressed in baculovirus expression system using Ser/Thr 07 as substrate at 10 uM incubated for 60 mins by Z'-lyte assay relative to control"}, "[13]": {"molecular_target": "Ribosomal protein S6 kinase alpha-2 (Homo sapiens) (UniProt Q15349)", "assay": "Inhibition of recombinant human GST-tagged full length RSK3 expressed in insect expression system using Ser/Thr 06 as substrate at 10 uM incubated for 60 mins by Z'-Lyte assay relative to control"}, "[14]": {"molecular_target": "Mitogen-activated protein kinase 1 (Homo sapiens) (UniProt P28482)", "sequence (P28482 whole entry)": "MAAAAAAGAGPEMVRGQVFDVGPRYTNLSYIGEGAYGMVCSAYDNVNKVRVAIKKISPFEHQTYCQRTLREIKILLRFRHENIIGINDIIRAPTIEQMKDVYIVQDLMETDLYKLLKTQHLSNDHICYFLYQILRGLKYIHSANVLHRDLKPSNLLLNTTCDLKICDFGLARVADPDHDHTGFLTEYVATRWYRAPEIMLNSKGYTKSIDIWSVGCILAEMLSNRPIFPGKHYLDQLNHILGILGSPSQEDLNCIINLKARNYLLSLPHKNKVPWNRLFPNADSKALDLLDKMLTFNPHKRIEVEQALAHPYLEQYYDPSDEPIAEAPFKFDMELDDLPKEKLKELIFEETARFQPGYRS", "assay": "Inhibition of recombinant human GST-tagged full length ERK2 expressed in baculovirus expression system using Ser/Thr 03 as substrate at 10 uM incubated for 60 mins by Z'-Lyte assay relative to control"}, "[15]": {"molecular_target": "Casein kinase I isoform epsilon (Homo sapiens) (UniProt P49674)", "assay": "Inhibition of recombinant human His-tagged full length CK1epsilon expressed in baculovirus expression system using Ser/Thr 11 as substrate at 10 uM incubated for 60 mins by Z'-Lyte assay relative to control"}, "[16]": {"molecular_target": "Serine/threonine-protein kinase 3 (Homo sapiens) (UniProt Q13188)", "sequence (Q13188 whole entry)": "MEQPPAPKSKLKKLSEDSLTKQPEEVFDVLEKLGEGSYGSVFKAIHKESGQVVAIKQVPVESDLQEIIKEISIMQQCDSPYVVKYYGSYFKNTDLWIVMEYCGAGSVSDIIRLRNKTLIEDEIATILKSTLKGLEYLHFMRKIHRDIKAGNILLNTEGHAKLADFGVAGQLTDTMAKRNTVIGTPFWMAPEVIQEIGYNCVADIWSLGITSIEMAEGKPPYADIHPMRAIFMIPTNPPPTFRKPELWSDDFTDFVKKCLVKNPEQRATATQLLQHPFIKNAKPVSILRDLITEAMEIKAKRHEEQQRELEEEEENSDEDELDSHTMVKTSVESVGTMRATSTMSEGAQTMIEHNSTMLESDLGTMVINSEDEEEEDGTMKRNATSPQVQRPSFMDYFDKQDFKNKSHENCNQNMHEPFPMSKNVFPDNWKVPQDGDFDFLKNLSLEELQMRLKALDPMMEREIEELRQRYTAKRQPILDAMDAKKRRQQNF", "assay": "Inhibition of recombinant human GST-tagged full length MST2 expressed in baculovirus expression system using Ser/Thr 07 as substrate at 10 uM incubated for 60 mins by Z'-lyte assay relative to control"}, "Homo sapiens": {"organism": "Homo sapiens", "assay": "Inhibition of recombinant human His-tagged PKA (1 to 351 residues) expressed in Escherichia coli expression system using Ser/Thr 01 as substrate at 10 uM incubated for 60 mins by Z'-lyte assay relative to control"}, "[17]": {"molecular_target": "Cytoplasmic tyrosine-protein kinase BMX (Homo sapiens) (UniProt P51813)", "assay": "Inhibition of recombinant human His-tagged full length BMX expressed in baculovirus expression system using Tyr 01 as substrate at 10 uM incubated for 60 mins by Z'-Lyte assay relative to control"}, "[18]": {"molecular_target": "Serine/threonine-protein kinase PAK 1 (Homo sapiens) (UniProt Q13153)", "assay": "Inhibition of recombinant human GST-tagged full length PAK1 expressed in baculovirus expression system using Ser/Thr 19 as substrate at 10 uM incubated for 60 mins by Z'-lyte assay relative to control"}, "[19]": {"molecular_target": "Bone morphogenetic protein receptor type-1A (Homo sapiens) (UniProt P36894)", "assay": "Inhibition of tracer 178 binding to recombinant human N-terminal GST-tagged full length BMPR1A expressed in insect expression system at 10 uM incubated for 60 mins by Lanthascreen assay relative to control"}, "[20]": {"molecular_target": "Ephrin type-A receptor 7 (Homo sapiens) (UniProt Q15375)", "assay": "Inhibition of tracer 236 binding to recombinant human GST-tagged EPHA7 (579 to 998 residues) expressed in baculovirus expression system at 10 uM incubated for 60 mins by Lanthascreen assay relative to control"}, "[21]": {"molecular_target": "MAP/microtubule affinity-regulating kinase 3 (Homo sapiens) (UniProt P27448)", "assay": "Inhibition of recombinant human GST-tagged full length MARK3 expressed in baculovirus expression system using Ser/Thr 25 as substrate at 10 uM incubated for 60 mins by Z'-lyte assay relative to control"}, "[22]": {"molecular_target": "Protein kinase C eta type (Homo sapiens) (UniProt P24723)", "assay": "Inhibition of recombinant human His-tagged full length PKCeta expressed in baculovirus expression system using Ser/Thr 07 as substrate at 10 uM incubated for 60 mins by Z'-lyte assay relative to control"}, "[23]": {"molecular_target": "Serine/threonine-protein kinase NLK (Homo sapiens) (UniProt Q9UBE8)", "assay": "Inhibition of tracer 178 binding to recombinant human GST-tagged full length NLK expressed in baculovirus expression system at 10 uM incubated for 60 mins by Lanthascreen assay relative to control"}, "[24]": {"assay": "Oral bioavailability in Sprague-Dawley rat at 2 mg/kg", "format": "ADME, organism-based", "settings": "in vivo"}},
  "data": [
    {"smiles": "CN1C(=O)[C@@H](NC(=O)c2n[nH]c3ncc(C(F)(F)C(F)(F)F)cc23)COc2ccccc21", "values": [
      {"measurement": "inhibition", "setting": "[1]", "result": -1, "unit": "%"},
      {"measurement": "inhibition", "setting": "[2]", "result": 6, "unit": "%"},
      {"measurement": "inhibition", "setting": "[3]", "result": 10.5, "unit": "%"},
      {"measurement": "inhibition", "setting": "[4]", "result": 4, "unit": "%"},
      {"measurement": "inhibition", "setting": "[5]", "result": -4, "unit": "%"},
      {"measurement": "inhibition", "setting": "[6]", "result": 7, "unit": "%"},
      {"measurement": "inhibition", "setting": "[7]", "result": 17, "unit": "%"},
      {"measurement": "inhibition", "setting": "[8]", "result": 5, "unit": "%"},
      {"measurement": "inhibition", "setting": "[9]", "result": 8.5, "unit": "%"},
      {"measurement": "inhibition", "setting": "[10]", "result": 5, "unit": "%"},
      {"measurement": "inhibition", "setting": "[11]", "result": -2, "unit": "%"},
      {"measurement": "inhibition", "setting": "[12]", "result": -5, "unit": "%"},
      {"measurement": "inhibition", "setting": "[13]", "result": -4.5, "unit": "%"},
      {"measurement": "inhibition", "setting": "[14]", "result": 7, "unit": "%"},
      {"measurement": "inhibition", "setting": "[15]", "result": 5, "unit": "%"},
      {"measurement": "inhibition", "setting": "[16]", "result": 1.5, "unit": "%"},
      {"measurement": "inhibition", "setting": "Homo sapiens", "result": -1, "unit": "%"},
      {"measurement": "inhibition", "setting": "[17]", "result": 1.5, "unit": "%"},
      {"measurement": "inhibition", "setting": "[18]", "result": 0.5, "unit": "%"},
      {"measurement": "inhibition", "setting": "[19]", "result": 5, "unit": "%"},
      {"measurement": "inhibition", "setting": "[20]", "result": 4.5, "unit": "%"},
      {"measurement": "inhibition", "setting": "[21]", "result": -3.5, "unit": "%"},
      {"measurement": "inhibition", "setting": "[22]", "result": 5, "unit": "%"},
      {"measurement": "inhibition", "setting": "[23]", "result": -3.5, "unit": "%"},
      {"measurement": "bioavailability", "setting": "[24]", "result": 63, "unit": "%"}
    ]}
  ]
}
